Read-outs that look alike come from different tables or passages of the source.
Experiments:
[1] = log P determination by HPLC on reversed-phase columns (C 18), analogous to OECD Guideline 117; format: physicochemical; settings: for chromatographic logP: reversed-phase HPLC column (C 18); for logP[a]: method [a]; for logP[b]: method [b]
In short: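 Reversed-phase C18 HPLC per OECD 117, two conditions: [a] pH 2.7, 0.1% formic acid water/acetonitrile, log P(HCOOH); [b] pH 7.8, 0.001 M ammonium hydrogencarbonate/acetonitrile, log P(neutral). Both use a 10–95% acetonitrile gradient; values are interpolated from retention times against C3–C16 unbranched alkan-2-ones.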

Boophilus microplus = Boophilus microplus - injection test; format: in vivo; settings: 20 μg/animal, injection into engorged adult female cattle ticks, assessed after 7 days
Procedure: 1. Boophilus microplus—Injection Test
Solvent: dimethyl sulphoxide
To produce a suitable preparation of active compound, 10 mg of active compound are mixed with 0.5 ml of solvent and the concentrate is diluted with solvent to the desired concentration.
1 μl of the active compound solution is injected into the abdomen of 5 engorged adult female cattle ticks (Boophilus microplus). The animals are transferred into dishes and kept in a climate-controlled room.
Efficacy is assessed after 7 days by laying of fertile eggs. Eggs which are not visibly fertile are stored in a climate-controlled cabinet until the larvae hatch after about 42 days. An efficacy of 100% means that none of the ticks has laid any fertile eggs; 0% means that all the eggs are fertile.

Tetranychus urticae = Tetranychus urticae - spray test, OP-resistant (bean leaf discs, 6 days); format: in vivo; settings: after 6 days; for pest or weed control at 500 g/ha: Tetranychus urticae, foliar, 144 h, read-out: efficacy (spider mites killed)
In short: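 Bean leaf discs carrying all stages of OP-resistant Tetranychus urticae were sprayed with compound formulated in acetone/DMF and diluted in water with 1000 ppm emulsifier. Mortality was scored after 6 days as % efficacy, where 100% means all mites were killed.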

Meloidogyne incognita = Meloidogyne incognita - test; format: in vivo; settings: 20 ppm, lettuce, after 14 days
Procedure: 2. Meloidogyne incognita—Test Solvent: 125.0 parts by weight of acetone To produce a suitable preparation of active compound, 1 part by weight of active compound is mixed with the stated amount of solvent and the concentrate is diluted with water to the desired concentration. Vessels are filled with sand, active compound solution, an egg/larvae suspension of the southern root-knot nematode (Meloidogyne incognita) and lettuce seeds. The lettuce seeds germinate and the plants develop. The galls develop on the roots. After 14 days, the nematicidal efficacy in % is determined by the formation of galls. 100% means that no galls were found; 0% means that the number of galls on the treated plants corresponds to the untreated control.

[2] = pH 2.7, HPLC, acidic range, pH 2.7, 0.1% aqueous formic acid and acetonitrile, read-out: log P(HCOOH)
[3] = pH 2.7, method [a], read-out: logP[a]
[4] = pH 7.8, HPLC, neutral range, pH 7.8, 0.001 molar aqueous ammonium hydrogencarbonate and acetonitrile, read-out: log P(neutral)
[5] = pH 7.8, method [b], read-out: logP[b]

Row | SMILES | chromatographic logP [1, 2] | chromatographic logP [1, 3] | chromatographic logP [1, 4] | chromatographic logP [1, 5] | logP[a] [1] | logP[b] [1] | efficacy (laying of fertile eggs) (Boophilus microplus) [%] | pest or weed control at 500 g/ha (Tetranychus urticae; 500 g/ha) [%] | efficacy (spider mites killed) (Tetranychus urticae; 500 g/ha) [%] | nematicidal efficacy (formation of galls) (Meloidogyne incognita) [%] | efficacy (spider mites killed) (Tetranychus urticae; 100 g/ha) [%]
1 | Cc1cc(F)c(N2C(=O)CN(C(=O)NCC(F)(F)F)C2=O)cc1[S+]([O-])CC(F)(F)F (stereo not drawn) [Ex. No. 36, 3-[2-Fluoro-4-methyl-5-(2,2,2-trifluoroethylsulphinyl)phenyl]-2,4-dioxo-N-(2,2,2-trifluoroethyl)imidazolidine-1-carboxamide] | 2.46 | 2.46 | 2.42 | 2.41 |  |  | 100 | 100 |  | 90 | 
2 | Cc1cc(F)c(N2C(=O)CN(C(=O)Nc3cccc(F)c3)C2=O)cc1SCC(F)(F)F [compound 42] |  |  |  |  | 3.90 | 3.94 | 100 |  | 100 | 90 | 
3 | Cc1cc(F)c(N2C(=O)CN(C(=O)NC3CC3)C2=O)cc1SCC(F)(F)F [Ex. No. 1, N-Cyclopropyl-3-[2-fluoro-4-methyl-5-(2,2,2-trifluoroethylsulphanyl)phenyl]-2,4-dioxoimidazolidine-1-carboxamide] | 3.07 | 3.07 | 2.98 | 2.98 |  |  | 100 | 100 |  | 90 | 
4 | Cc1cc(C)c([S+]([O-])CC(F)(F)F)cc1N1C(=O)CN(C(=O)NC(C)C)C1=O (stereo not drawn) [compound 23] |  |  |  |  | 2.52 | 2.45 | 100 |  |  | 100 | 
5 | CCNC(=O)N1CC(=O)N(c2cc(SCC(F)(F)F)c(C)cc2F)C1=O [compound 6] |  |  |  |  | 2.98 | 2.93 | 100 |  | 100 | 90 | 
6 | Cc1cc(F)c(N2C(=O)CN(C(=O)NCc3ccccc3)C2=O)cc1[S+]([O-])CC(F)(F)F (stereo not drawn) [compound 21] |  |  |  |  | 2.77 | 2.71 | 100 |  | 100 | 90 | 
7 | Cc1cc(Cl)c(N2C(=O)CN(C(=O)NCC(F)(F)F)C2=O)cc1[S+]([O-])CC(F)(F)F (stereo not drawn) [compound 63] |  |  |  |  | 2.66 | 2.58 | 100 |  | 100 |  | 
8 | Cc1cc(C)c([S+]([O-])CC(F)(F)F)cc1N1C(=O)CN(C(=O)Nc2ccc(F)cc2)C1=O (racemic) [compound 99] |  |  |  |  | 3.01 | 2.92 | 100 |  |  | 90 | 90
9 | Cc1cc(F)c(N2C(=O)CN(C(=O)NC(C)C)C2=O)cc1SCC(F)(F)F [Ex. No. 7] |  |  |  |  | 3.34 | 3.29 | 100 |  | 100 | 90 | 
10 | Cc1cc(F)c(N2C(=O)CN(C(=O)Nc3ccc(F)cc3)C2=O)cc1[S+]([O-])CC(F)(F)F (stereo not drawn) [compound 41] |  |  |  |  | 2.92 | 2.86 | 100 |  | 100 |  | 
11 | Cc1cc(F)c(N2C(=O)CN(C(=O)NCC3CCCO3)C2=O)cc1[S+]([O-])CC(F)(F)F (mixture of isomers) [compound 91] |  |  |  |  | 2.19 | 2.13 | 100 |  | 100 |  | 
12 | Cc1cc(Cl)c(N2C(=O)CN(C(=O)NC3CC3)C2=O)cc1SCC(F)(F)F [compound 50] |  |  |  |  | 3.29 | 3.19 |  |  | 100 | 90 | 

Further lines, with some results ahead:

Row | chromatographic logP [1, 2] | chromatographic logP [1, 3] | chromatographic logP [1, 4] | chromatographic logP [1, 5] | logP[a] [1] | logP[b] [1] | SMILES | efficacy (laying of fertile eggs) (Boophilus microplus) [%] | pest or weed control at 500 g/ha (Tetranychus urticae; 500 g/ha) [%] | efficacy (spider mites killed) (Tetranychus urticae; 500 g/ha) [%] | nematicidal efficacy (formation of galls) (Meloidogyne incognita) [%] | efficacy (spider mites killed) (Tetranychus urticae; 100 g/ha) [%]
13 | 2.72 | 2.72 | 2.66 | 2.66 |  |  | Cc1cc(F)c(N2C(=O)CN(C(=O)NCC(C)C)C2=O)cc1[S+]([O-])CC(F)(F)F (stereo not drawn) [Ex. No. 15, 3-[2-Fluoro-4-methyl-5-(2,2,2-trifluoroethylsulphinyl)phenyl]-N-isobutyl-2,4-dioxoimidazolidine-1-carboxamide] | 100 | 100 |  |  | 
14 |  |  |  |  | 2.38 | 2.29 | Cc1cc(Cl)c(N2C(=O)CN(C(=O)NC3CC3)C2=O)cc1[S+]([O-])CC(F)(F)F (stereo not drawn) [compound 62] | 100 |  | 100 |  | 
15 |  |  |  |  | 2.70 | 2.65 | CCC(C)NC(=O)N1CC(=O)N(c2cc([S+]([O-])CC(F)(F)F)c(C)cc2F)C1=O (stereo not drawn) [compound 47] | 100 |  | 100 | 100 | 
16 |  |  |  |  | 2.75 | 2.71 | Cc1cc(F)c(N2C(=O)C(C)N(C(=O)NCC(F)(F)F)C2=O)cc1[S+]([O-])CC(F)(F)F (mixture of isomers) [compound 88] | 100 |  | 100 |  | 
17 |  |  |  |  | 2.46 | 2.42 | Cc1cc(F)c(N2C(=O)C(C)N(C(=O)NC3CC3)C2=O)cc1[S+]([O-])CC(F)(F)F (stereo not drawn) [compound 28] | 100 |  | 100 |  | 
18 |  |  |  |  | 2.84 | 2.75 | Cc1cc(F)c(N2C(=O)CN(C(=O)NC(C)(C)C)C2=O)cc1[S+]([O-])CC(F)(F)F (racemic) [compound 68] | 100 |  | 100 | 90 | 
19 |  |  |  |  | 2.77 | 2.73 | Cc1cc(F)c(N2C(=O)C(C)N(C(=O)NC(C)C)C2=O)cc1[S+]([O-])CC(F)(F)F (stereo not drawn) [compound 29] | 100 |  | 100 |  | 
20 |  |  |  |  | 3.10 | 3.02 | Cc1cc(F)c(N2C(=O)C(C)N(C(=O)NCC(C)C)C2=O)cc1[S+]([O-])CC(F)(F)F (mixture of isomers) [compound 89] | 100 |  | 100 |  | 
21 |  |  |  |  | 2.05 | 2.05 | CCNC(=O)N1CC(=O)N(c2cc([S+]([O-])CC(F)(F)F)c(C)cc2F)C1=O (stereo not drawn) [compound 9] | 100 |  | 100 | 100 | 
22 |  |  |  |  | 2.40 | 2.38 | Cc1cc(F)c(N2C(=O)CN(C(=O)NC(C)C)C2=O)cc1[S+]([O-])CC(F)(F)F (stereo not drawn) [compound 10] | 100 |  | 100 | 100 | 
23 | 2.42 | 2.42 | 2.39 | 2.39 |  |  | CCNC(=O)N1C(=O)N(c2cc([S+]([O-])CC(F)(F)F)c(C)cc2F)C(=O)C1C (stereo not drawn) [Ex. No. 27, N-Ethyl-3-[2-fluoro-4-methyl-5-(2,2,2-trifluoroethylsulphinyl)phenyl]-5-methyl-2,4-dioxoimidazolidine-1-carboxamide] | 100 | 100 |  |  | 
